# Molecular target: human PTGES (Homo sapiens (Human), UniProt O14684)
# Assay: Human PTGES biochemical enzyme inhibition assay (conversion of PGH2 to PGE2, TR-FRET)
# Details: Enzymatic conversion of PGH2 to PGE2; read-out: Human PTGES IC50
# Procedure: Human PTGES Biochemical Enzyme Inhibition Assay:
# PTGES (Microsomal prostaglandin E synthase 1) is an enzyme that converts prostaglandin H2 (PGH2) to prostaglandin E2 (PGE2) in the presence of reduced glutathione (GSH).
# Recombinant proteins (human isoforms) of PTGES containing a FLAG tag, expressed in baculovirus infected insect cells (Hi-5) and purified by affinity chromatography was used as enzyme in the assay. Substrate was prostaglandin H2 (Cayman Chemicals).
# 4 ul of a solution of human PTGES in assay buffer [100 mM sodium phosphate pH 7.2, 2.5 mM Glutathion reduced, 1 mM EDTA, 0.01% BSA, 0.4 mM DTT, 0.15 mM n-dodecylmaltoside] was added to the well containing test compound and incubated for 15-20 minutes to allow binding of the compound to the enzyme prior to the enzymatic reaction. The reaction was started by addition of 1 ul of an ice cold solution containing PGH2 (40 nM in assay buffer resulting in a final concentration of 8 nM PGH2 in the assay). […] The concentration of each isoform of PTGES was adapted to the activity of the respective enzyme preparation to maintain linear reaction properties within the reaction time. […] The reaction was stopped by addition of 1 ul of a solution containing 15 mM SnCl2 and 400 mM KF in water. SnCl2 converts the remaining unstable PGH2 to stable PGF2alpha. Then, 3 ul of the a first detection solution containing PGE2-D2 (Cisbio Bioassays, TR-FRET reagent, diluted according to the manufacturer's recommendation, typically 1:20 in reconstitution buffer) was added. […] The resulting mix was incubated overnight at 4° C. to allow the formation of a complex of PGE2 and the detection reagents. […] Dilution series were made prior to the assay in a 100 fold concentrated form by serial dilution. IC50 values were calculated by 4-Parameter fitting.
# Chain of human PTGES (O14684 whole entry): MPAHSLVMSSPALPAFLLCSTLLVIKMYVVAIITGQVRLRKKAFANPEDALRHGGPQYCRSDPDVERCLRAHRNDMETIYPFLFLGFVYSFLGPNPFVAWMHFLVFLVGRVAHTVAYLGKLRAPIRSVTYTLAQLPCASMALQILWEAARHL
row,Structure (SMILES),IC50 [nM]
1,"CCOc1cncc(-c2ccc(C(C(=O)Nc3cccc(C(C)CC(=O)O)c3C)C3CCCC3)cc2)c1 (mixture of isomers) [Example 90, (3R/S)-3-[3-({(2R/S)-2-Cyclopentyl-2-[4-(5-ethoxypyridin-3-yl)phenyl]acetyl}amino)-2-methylphenyl]butanoic acid]",108
2,"Cc1c(NC(=O)C(c2ccc(-c3cncc(C(F)(F)F)c3)cc2)C2CCCC2)cccc1C(C)CC(=O)O (mixture of isomers) [Example 91, (3R/S)-3-(3-{[(2R/S)-2-Cyclopentyl-2-{4-[5-(trifluoromethyl)pyridin-3-yl]phenyl}acetyl]amino}-2-methylphenyl)butanoic acid]",20.3
3,"CCc1cncc(-c2ccc(C(C(=O)Nc3cccc(C(C)CC(=O)O)c3C)C3CCCC3)cc2)c1 (mixture of isomers) [Example 92, (3R/S)-3-[3-({(2R/S)-2-Cyclopentyl-2-[4-(5-ethylpyridin-3-yl)phenyl]acetyl}amino)-2-methylphenyl]butanoic acid]",22
4,"Cc1cc(-c2ccc(C(C(=O)Nc3cccc(C(C)CC(=O)O)c3C)C3CCCC3)cc2)cnc1C (mixture of isomers) [Example 93, (3R/S)-3-[3-({(2R/S)-2-Cyclopentyl-2-[4-(5,6-dimethylpyridin-3-yl)phenyl]acetyl}amino)-2-methylphenyl]butanoic acid]",35.6
5,"Cc1cncc(-c2ccc(C(C(=O)Nc3cccc(C(C)CC(=O)O)c3C)C3CCCC3)cc2)c1 (mixture of isomers) [Example 94, (3R/S)-3-[3-({(2R/S)-2-Cyclopentyl-2-[4-(5-methylpyridin-3-yl)phenyl]acetyl}amino)-2-methylphenyl]butanoic acid]",32.3
6,"Cc1c(NC(=O)C(c2ccc(-c3cncc(F)c3)cc2)C2CCCC2)cccc1C(C)CC(=O)O (mixture of isomers) [Example 95, (3R/S)-3-[3-({(2R/S)-2-Cyclopentyl-2-[4-(5-fluoropyridin-3-yl)phenyl]acetyl}amino)-2-methylphenyl]butanoic acid]",41.7
7,"Cc1ncc(-c2ccc(C(C(=O)Nc3cccc(C(C)CC(=O)O)c3C)C3CCCC3)cc2)cc1F (mixture of isomers) [Example 96, (3R/S)-3-[3-({(2R/S)-2-[4-(5-Fluoro-6-methylpyridin-3-yl)phenyl]-2-cyclopentylacetyl}amino)-2-methylphenyl]butanoic acid]",36.9
8,"Cc1ncc(-c2ccc(C(C(=O)Nc3cccc(C(C)CC(=O)O)c3C)C3CCCC3)cc2)cc1Cl (mixture of isomers) [Example 97, (3R/S)-3-[3-({(2R/S)-2-[4-(5-Chloro-6-methylpyridin-3-yl)phenyl]-2-cyclopentylacetyl}amino)-2-methylphenyl]butanoic acid]",13
9,"Cc1c(NC(=O)C(c2ccc(-c3cncc(C(F)F)c3)cc2)C2CCCC2)cccc1C(C)CC(=O)O (mixture of isomers) [Example 98, (3R/S)-3-(3-{[(2R/S)-2-Cyclopentyl-2-{4-[5-(difluoromethyl)pyridin-3-yl]phenyl}acetyl]amino}-2-methylphenyl)butanoic acid]",33.8
10,"CCOc1cncc(-c2ccc(C(C(=O)Nc3cccc(C(CC)CC(=O)O)c3C)C3CCCC3)cc2)c1 (mixture of isomers) [Example 107, (3R/S)-3-[3-({(2R/S)-2-Cyclopentyl-2-[4-(5-ethoxypyridin-3-yl)phenyl]acetyl}amino)-2-methylphenyl]pentanoic acid]",106
11,"Cc1ncc(-c2ccc(C(C(=O)Nc3cccc(C(CC(=O)O)C4CC4)c3C)C3CCCC3)cc2)cc1Cl (mixture of isomers) [Example 108, (3R/S)-3-[3-({(2R/S)-2-[4-(5-chloro-6-methylpyridin-3-yl)phenyl]-2-cyclopentylacetyl}amino)-2-methylphenyl]-3-cyclopropylpropanoic acid]",31.9
12,"Cc1c(NC(=O)C(c2ccc(-c3cncc(C(F)(F)F)c3)cc2)C2CCCC2)cccc1C(CC(=O)O)C1CC1 (mixture of isomers) [Example 109, (3R/S)-3-(3-{[(2R/S)-2-cyclopentyl-2-{4-[5-(trifluoromethyl)pyridin-3-yl]phenyl}acetyl]amino}-2-methylphenyl)-3-cyclopropylpropanoic acid]",24.9
13,"Cc1c(NC(=O)C(c2ccc(-c3cncc(Cl)c3)cc2)C2CCCC2)cccc1C(CC(=O)O)C1CC1 (mixture of isomers) [Example 110, (3R/S)-3-[3-({(2R/S)-2-[4-(5-chloropyridin-3-yl)phenyl]-2-cyclopentylacetyl}amino)-2-methylphenyl]-3-cyclopropylpropanoic acid]",54.4
14,"CCOc1cncc(-c2ccc(C(C(=O)Nc3cccc(C(CC(=O)O)C4CC4)c3C)C3CCCC3)cc2)c1 (mixture of isomers) [Example 111, (3R/S)-3-[3-({(2R/S)-2-cyclopentyl-2-[4-(5-ethoxypyridin-3-yl)phenyl]acetyl}amino)-2-methylphenyl]-3-cyclopropylpropanoic acid]",53.9
15,"Cc1c(NC(=O)C(c2ccc(-c3cncc(F)c3)cc2)C2CCCC2)cccc1C(CC(=O)O)C1CC1 (mixture of isomers) [Example 112, (3R/S)-3-[3-({(2R/S)-2-cyclopentyl-2-[4-(5-fluoropyridin-3-yl)phenyl]acetyl}amino)-2-methylphenyl]-3-cyclopropylpropanoic acid]",51.9
16,"Cc1cncc(-c2ccc(C(C(=O)Nc3cccc(C(CC(=O)O)C4CC4)c3C)C3CCCC3)cc2)c1 (mixture of isomers) [Example 113, (3R/S)-3-[3-({(2R/S)-2-cyclopentyl-2-[4-(5-methylpyridin-3-yl)phenyl]acetyl}amino)-2-methylphenyl]-3-cyclopropylpropanoic acid]",140
17,"CCc1cncc(-c2ccc(C(C(=O)Nc3cccc(C(CC(=O)O)C4CC4)c3C)C3CCCC3)cc2)c1 (mixture of isomers) [Example 114, (3R/S)-3-[3-({(2R/S)-2-cyclopentyl-2-[4-(5-ethylpyridin-3-yl)phenyl]acetyl}amino)-2-methylphenyl]-3-cyclopropylpropanoic acid]",29.5
18,"Cc1c(NC(=O)C(c2ccc(-c3cncc(C(F)(F)F)c3)c(F)c2)C2CCCC2)cccc1C(C)CC(=O)O (mixture of isomers) [Example 115, (3R/S)-3-(3-{[(2R/S)-2-Cyclopentyl-2-{3-fluoro-4-[5-(trifluoromethyl)pyridin-3-yl]phenyl}acetyl]amino}-2-methylphenyl)butanoic acid]",18.5
19,"Cc1ncc(-c2ccc(C(C(=O)Nc3cccc(C(C)CC(=O)O)c3C)C3CCCC3)cc2F)cc1Cl (mixture of isomers) [Example 120, (3R/S)-3-[3-({(2R/S)-2-[4-(5-Chloro-6-methylpyridin-3-yl)-3-fluorophenyl]-2-cyclopentylacetyl}amino)-2-methylphenyl]butanoic acid]",15.9
20,"Cc1c(NC(=O)C(c2ccc(-c3cncc(Cl)c3)c(F)c2)C2CCCC2)cccc1C(C)CC(=O)O (mixture of isomers) [Example 125, (3R/S)-3-[3-({(2R/S)-2-[4-(5-Chloropyridin-3-yl)-3-fluorophenyl]-2-cyclopentylacetyl}amino)-2-methylphenyl]butanoic acid]",22.9
21,"Cc1c(NC(=O)C(c2ccc(-c3cncc(Cl)c3)cc2)C2CCC2)cccc1C(C)CC(=O)O (mixture of isomers) [Example 135, (3R/S)-3-[3-({(2R/S)-2-[4-(5-Chloropyridin-3-yl)phenyl]-2-cyclobutylacetyl}amino)-2-methylphenyl]butanoic acid]",86.2
22,"Cc1c(NC(=O)C(c2ccc(-c3cncc(C(F)(F)F)c3)c(F)c2)C2CCC2)cccc1C(C)CC(=O)O (mixture of isomers) [Example 145, (3R/S)-3-(3-{[(2R/S)-2-Cyclobutyl-2-{3-fluoro-4-[5-(trifluoromethyl)pyridin-3-yl]phenyl}acetyl]amino}-2-methylphenyl)butanoic acid]",50.4
23,"Cc1c(NC(=O)C(c2ccc(-c3cncc(C(F)(F)F)c3)c(F)c2)C2CCC2)cccc1C(C)CC(=O)O (mixture of isomers) [Example 146, 3-{3-[(Cyclobutyl{3-fluoro-4-[5-(trifluoromethyl)pyridin-3-yl]phenyl}acetyl)amino]-2-methylphenyl}butanoic acid, Stereoisomeric Mixture 1]",12.6
24,"Cc1c(CCC(=O)O)cccc1NC(=O)C(c1ccc(-c2ccc(C(F)(F)F)nc2)cc1)C1CCCC1 (racemic) [Example 4, (R/S) 3-{3-[(Cyclopentyl{4-[6-(trifluoromethyl)pyridin-3-yl]phenyl}acetyl)amino]-2-methylphenyl}propanoic acid]",1320
25,"Cc1c(CCC(=O)O)cccc1NC(=O)C(c1ccc(-c2ccc(C#N)nc2)cc1)C1CCCC1 (racemic) [Example 7, (R/S) 3-[3-({[4-(6-Cyanopyridin-3-yl)phenyl](cyclopentyl)acetyl}amino)-2-methylphenyl]propanoic acid]",3160

# — US10172814B2, “Substituted pyridyl-cycloalkyl-carboxylic acids, compositions containing them and medical uses thereof” (BAYER PHARMA AKTIENGESELLSCHAFT, priority 2014, dated 2019)
